We go through three molecules from patent US20090291462A1, “Detection or Quantification of Aggrecan and its Fragments” (Immunodiagnostic Systems Nordic A/S, priority 2005, published 2009).

Holding throughout (format): cell-based
For assay [1], the system named is Bovine articular cartilage explants. Description: CS846 release into supernatants of bovine articular cartilage explants (IBEX CS846 competitive ELISA kit). The conditions noted are these: FIG. 6; for release of CS846 on cytokine stimulation: OSM and TNFα together. As for the experimental part:
(§1) The G2 and the ^342FFGVG-G2 test described above were evaluated using conditioned medium from cartilage explants. Bovine articular cartilage was obtained from heifer stifle joints. Pieces of cartilage (16±4 mg) were placed in 96 well plates and incubated at 37° C. with 5% CO2 and shaking (50 rpm). Serum-free D-MEM medium with or without the cytokines oncostatin M and tumour necrosis factor α (TNFα) or the MMP inhibitor GM6001 was used. As negative control, cartilage was placed in chryo-tubes, frozen in liquid N2, and thawed at 37° C. in water-bath for three repeated freeze-thaw cycles. The explants culture medium was replaced every 3rd day, and supernatants were stored at −20° C. until further analysis.
The supernatants evaluated above was also measured for CS846 (IBEX CS846 competitive ELISA kit).

The test system is the same in assay [2]. Description: ^342FFGVG-G2 release into supernatants of bovine articular cartilage explants (AF-28/F78 sandwich assay). The settings on record: FIG. 5; for release of ^342FFGVG-G2 on cytokine stimulation: OSM and TNF-α together, after day 12. As for the experimental part: Streptavidin plates were incubated for 1 hour, 300 RPM, 20° C. with 100 μl 1500 ng/ml biotinylated AF-28 monoclonal antibody against the epitope ^342FFGVG-G2. Antibody dilutions were made in PBS-BTB buffer. After incubating the plates for 1 hour, plates were washed 5 times with washing buffer (0.15 mol/l NaCl, 0.05% (v/v) Tween 20). Subsequently 50 μl standards (MMP-13 digested purified porcine aggrecan 47-3000 ng/ml or pre-diluted explant supernatants in PBS-BTB were added, and the plates were incubated for 1 hour, 300 RPM, 20° C. After the incubation period, the plates were washed 5 times as described previously, and 500 ng/ml horseradish Peroxidase (POD)-labelled F78 antibody was added. After incubating for 1 hour, 300 RPM, 20° C., the plates were washed 5 times, 100 μl of TMB substrate was added, and the plates were incubated for 15 minutes, 300 RPM, 20° C. in the dark before 150 μl 0.18 M H2SO4 was added. The absorbance was measured immediately after at 450 nm.
as §1

Assay [3] has the same test system. Description: G2 release into supernatants of bovine articular cartilage explants (F78 sandwich assay). The conditions noted are these: FIG. 5; for release of G2 on cytokine stimulation: OSM and TNF-α together, decreases after day 5, background after day 12. As for the experimental part:
A sandwich assay was developed using monoclonal antibodies as described above. Streptavidin plates were incubated for 1 hour, 300 RPM, 20° C. with 100 μl 600 ng/ml biotinylated F78 monoclonal antibody against the G2 domain of aggrecan.
After incubating the plates for 1 hour, plates were washed 5 times with washing buffer (0.15 mol/l NaCl, 0.05% (v/v) Tween 20). Subsequently 100 μl standards (purified bovine aggrecan 0.05 ng/ml-10 ng/ml, or pre-diluted explant supernatants in PBS-BTB were added, and the plates were incubated for 1 hour, 300 RPM, 20° C. After the incubation period, the plates were washed 5 times as described previously, and 500 ng/ml horseradish Peroxidase (POD)-labelled F78 antibody was added. After incubating for 1 hour, 300 RPM, 20° C., the plate was washed 5 times, and 100 μl of TMB substrate was added, and the plate was incubated for 15 minutes, 300 RPM, 20° C. in the dark before 150 μl 0.18 M H2SO4 was added. The absorbance was measured immediately at 450 nm.
as §1

Take `CNC(=O)[C@H](Cc1c[nH]c2ccccc12)NC(=O)[C@@H](CC(=O)NO)CC(C)C` [GM6001]: in assay [1] (explants with GM6001), the “CS846 release during inhibition of MMP activity” value is “strong, initial elevation”. Besides, the “release of ^342FFGVG-G2 in the presence of the MMP inhibitor” value in assay [2] (explants treated with OSM and TNF-α concomitantly with GM6001) is “completely abrogated”. Moreover, the “release of G2 on addition of the MMP inhibitor” value in assay [3] (explants treated with OSM and TNF-α plus GM6001) was “did not inhibit”.

On to tumour necrosis factor α [TNF-α], for which the “release of CS846 on cytokine stimulation” value in assay [1] was “do not stimulate release”. The “release of ^342FFGVG-G2 on cytokine stimulation” value in assay [2] was “stimulate an increase”. Moreover, in assay [3], the “release of G2 on cytokine stimulation” value is reported as “initial elevation”.

B1: oncostatin M (protein, UniProt P13725 26-221, looked up)
Oncostatin-M: AAIGSCSKEYRVLLGQLQKQTDLMQDTSRLLDPYIRIQGLDVPKLREHCRERPGAFPSEETLRGLGRRGFLQTLNATLGCVLHRLADLEQRLPKAQDLERSGLNIEDLEKLQMARPNILGLRNNIYCMAQLLDNSDTAEPTKAGRGASQPPTPTPASDAFQRKLEGCRFLHGYHRFMHSVGRVFSKWGESPNRSRR
notes: cytokine oncostatin M used to stimulate cartilage explants
For B1, the “release of CS846 on cytokine stimulation” value in assay [1] is recorded as “do not stimulate release”. In assay [2], the “release of ^342FFGVG-G2 on cytokine stimulation” value was “stimulate an increase”. The “release of G2 on cytokine stimulation” value in assay [3] is “initial elevation”.
